Source: a melting point compilation (Tetko et al.)

| Structure (SMILES) | melting point [°C] |
| --- | --- |
| Nc1c(NCC2CCCO2)c(=O)[nH]c(=O)n1Cc1ccccc1 (stereo not given) | 221 to 223 |
| CCOc1ccc(S(=O)(=O)NC(=O)c2ccccc2)cc1 | 85 to 87 |
| O=C(CBr)c1ccc2c(c1)CCO2 | 72 to 74 |
| Cc1c(N)cccc1C(=O)Nc1ccccc1 | 161 to 163 |
| CC(C)Oc1ccc(C(=O)NCC(=O)O)cc1 | 154 to 156 |
| CC(=O)c1ccc(Oc2ccc(C(=O)O)cc2)cc1 | 161 to 163 |
| O=[N+]([O-])c1cnn(CC2CO2)c1 (stereo not given) | 68 to 70 |
| CCCCOc1ccc(-c2nnc(N)[nH]2)cc1 | 200 to 202 |
| CCS(=O)(=O)Nc1ccccc1C(=O)O | 145 to 147 |
| COc1ccccc1CC(N)=O | 127 to 129 |
| Nc1ccn(-c2ccncc2)n1 | 192 to 194 |
| COc1ccccc1NS(=O)(=O)c1ccc(NN)c([N+](=O)[O-])c1 | 181 to 183 |
| Fc1ccc(NC(=NC2CC2)c2ccccc2)cc1 | 92 to 94 |
| CCNC(=O)NCCO | 53 to 55 |
| NS(=O)(=O)C1CCCCC1 | 91 to 93 |
| c1cc(C2CCCNC2)[nH]n1 (stereo not given) | 74 to 76 |
| Cc1ccc(NC(=O)CC#N)cc1 | 188 to 190 |
| Cc1cccc(C(N)CC(=O)O)c1C (stereo not given) | 211 to 213 |
| COc1ccc(CC#N)c(Cl)c1OC | 55 to 57 |
| CC(C)CNC(=O)c1ccc(N)cc1Cl | 100 to 102 |
| Cc1ccsc1C(=O)CC#N | 114 to 116 |
| CCOc1ccccc1C(=O)N1CCNCC1 | 82 to 84 |
| O=[N+]([O-])c1ccc(-c2c[nH]cn2)cc1 | 224 to 226 |
| CC(C)(C#N)Nc1ccccc1 | 89 to 91 |
| NC(=O)c1ccc(CSc2ncccc2C(=O)O)cc1 | 291 to 293 |

| Structure (SMILES) | melting point [°C] |
| --- | --- |
| NC(=O)CCNc1ccccc1[N+](=O)[O-] | 136 to 138 |
| Cc1oc(Cn2cc(Br)cn2)cc1C(=O)O | 159 to 161 |
| O=Cc1cn(-c2ccccc2)nc1-c1cccs1 | 90 to 92 |
| CC(C)(C)OC(=O)N1CCN(C(N)=O)CC1 | 175 to 177 |
| NNC(=S)NCC(F)(F)F | 158 to 160 |
| Nc1cc(S(=O)(=O)NCCCN2CCOCC2)ccc1Cl | < 17 |
| Oc1ccc2cccc(O)c2n1 | 293 to 295 |
| O=C(O)C1(NS(=O)(=O)c2cccc(F)c2)CCCCC1 | 213 to 215 |
| CC(N)c1ccc(-c2ccncc2)cc1 (stereo not given) | 87 to 89 |
| COc1ccc(N)cc1Br | 58 to 60 |
| O=C(O)c1ccc2c(=O)n3c(nc2c1)CCCCC3 | 276 to 278 |
| Cc1cccc(NC(=O)CCN)n1 | 105 to 106 |
| CCS(=O)(=O)N1CCC(C(=O)O)(c2ccccc2)CC1 | 203 to 205 |
| NC(=O)c1ncn2c(C(=O)O)cc(-c3ccccc3)nc12 | 254 to 256 |
| c1ccc(Nc2nnns2)cc1 | 144 to 146 |
| Cc1ccc(-c2cnc(CCl)o2)cc1 | 58 to 60 |
| CCS(=O)(=O)c1ccc(S(=O)(=O)Cl)cc1 | 104 to 106 |
| O=[N+]([O-])c1cncc(Br)c1Cl | 45 to 47 |
| O=C(CO)Nc1cccc([N+](=O)[O-])c1 | 182 to 184 |
| O=C(O)C1CCCCN1S(=O)(=O)c1cccs1 (stereo not given) | 107 to 109 |
| O=C(O)CN1C(=O)COc2cc(Br)ccc21 | 234 to 236 |
| NCc1csc(CNC(=O)c2ccccc2)n1 | 84 to 86 |
| Cn1c(=O)[nH]c(=O)c2[nH]c(CCC(=O)O)nc21 | 322 to 324 |
| Nc1cc(-c2ccc(Cl)cc2)no1 | 164 to 166 |
| O=C(c1ccc(Br)cc1)N1CCNCC1 | 79 to 81 |

| Structure (SMILES) | melting point [°C] |
| --- | --- |
| O=c1[nH]c2cnccc2n1Cc1ccccc1 | 213 to 215 |
| COc1ccc(C(=O)c2ccc(Cl)cc2)cc1C | 121 to 123 |
| O=C(O)c1cc(S(=O)(=O)Nc2ccccc2F)c[nH]1 | 207 to 209 |
| COC(=O)c1oc(CO)cc1C | 87 to 89 |
| ClCc1cn(-c2ccc(Cl)c(Cl)c2)nn1 | 138 to 140 |
| COc1ccc(N)cc1OCC1CCCO1 (stereo not given) | 85 to 87 |
| Nc1nc(-c2ccccn2)cs1 | 135 to 137 |
| C#CCNC(=O)Nc1ccccc1 | 133 to 135 |
| O=C(O)c1ccc(-n2cccn2)nc1 | 267 to 269 |
| Cc1cc(Cl)n(-c2ccc(C#N)cc2)n1 | 103 to 105 |
| CCCCCC(=O)Nc1ccc(C(=O)CCl)cc1 | 179 to 181 |
| CCOC(=O)c1sc(-c2cccc(Br)c2)cc1N | 97 to 99 |
| O=c1ccc(=O)n(-c2ccc([N+](=O)[O-])cc2)[nH]1 | 308 to 310 |
| Nc1nnc2ccccn12 | 229 to 231 |
| NNC(=O)COc1ccc(Br)cc1 | 170 to 172 |
| COC(=O)c1nc2n(n1)CCCN2 | 173 to 175 |
| CCn1c(=O)c(=O)[nH]c2cc(C(=O)O)ccc21 | 270 to 285 |
| O=C1CCc2c(F)cc(Br)cc21 | 114 to 116 |
| CC(C)(C)OC(=O)NNCCS(C)(=O)=O | 105 to 107 |
| Cc1nnnn1-c1ccc(F)c(N)c1 | 156 to 158 |
| COc1cc(C(=O)O)ccc1OCc1ccc(Br)cc1 | 224 to 226 |
| CCC(=O)NC=C(Cl)Cl | 93 to 95 |
| CC(C)(C)c1ccc(S(=O)(=O)N2CCNCC2)cc1 | 126 to 128 |
| CC(Cn1cncn1)C(N)=S (stereo not given) | 169 to 171 |
| CCOC(=O)c1nc(Br)sc1NC | 75 to 77 |

| Structure (SMILES) | melting point [°C] |
| --- | --- |
| Oc1cc(Br)ccc1C(F)(F)F | 89 to 91 |
| CC1(c2ccccc2)CC(=O)NC(=O)C1 | 150 to 152 |
| CC(C)(C)NS(=O)(=O)c1ccc(F)c(N)c1 | 99 to 101 |
| Nc1cnn(-c2nccs2)c1 | 89 to 91 |
| O=C(O)c1cc(COc2c(Cl)cccc2Cl)on1 | 159 to 161 |
| O=C(O)c1ccc(OCC(F)(F)F)cc1 | 200 to 202 |
| O=C(O)c1cnc(Cl)cc1Cl | 158 to 160 |
| Cc1cc(C=O)cnc1Cl | 47 to 49 |
| Clc1cc2nn[nH]c2cc1Cl | 249 to 251 |
| CCOC(=O)c1oc2c(c1C)C(=O)CCC2 | 104 to 106 |
| COCCOc1ncccc1C(=O)O | 58 to 60 |
| Cc1nc(-c2ccc(Br)cc2)n[nH]1 | 190 to 192 |
| CCOC(=O)c1sc(SC)nc1N | 80 to 82 |
| S=c1[nH][nH]c(=Nc2cccc(Br)c2)s1 | 225 to 227 |
| O=C(O)CNC(=O)N1CCc2ccccc2C1 | 159 to 161 |
| CC(C)(C)C1CCc2nc(N)sc2C1 (stereo not given) | 131 to 133 |
| COCc1ccccc1S(N)(=O)=O | 59 to 61 |
| Cc1ccc(S(N)(=O)=O)s1 | 118 to 120 |
| Cn1c(Cl)nnc1-c1ccc(Cl)cc1Cl | 161 to 163 |
| c1cncc(-c2ncn[nH]2)c1 | 173 to 175 |
| NC(=S)CO | 54 to 56 |
| Cn1cc(C=O)c(-c2cccs2)n1 | 64 to 66 |
| O=C(Nc1ccc(O)cc1)c1ccco1 | 218 to 220 |
| NS(=O)(=O)c1ccc(Br)c([N+](=O)[O-])c1 | 185 to 187 |
| c1ccc(-c2c[nH]c(C3CCCNC3)n2)cc1 (stereo not given) | 93 to 95 |

| Structure (SMILES) | melting point [°C] |
| --- | --- |
| N#Cc1cnoc1N | 143 to 145 |
| NC(=O)COc1cccc(O)c1 | 134 to 136 |
| Cc1ccc(S(=O)(=O)N(C)c2ccc(C(=O)O)cc2)cc1 | 188 to 190 |
| N#Cc1ccc(NC(=O)C(=O)O)cc1Cl | 203 to 205 |
| CC(=O)NCc1ccc(C(=O)C(C)Cl)o1 (stereo not given) | 64 to 66 |
| Cc1cc(C)n2nc(O)cc2n1 | 241 to 243 |
| CNC(=O)CC(N)=S | 133 to 135 |
| Clc1nc(Cl)c2ccccc2n1 | 117 to 119 |
| CNCC1CCN(CC(O)c2ccccc2)CC1 (stereo not given) | 47 to 49 |
| CNc1cc(NC)c([N+](=O)[O-])cc1F | 185 to 187 |
| O=c1[nH]c(CNCC2CCCO2)nc2ccccc12 (stereo not given) | 128 to 132 |
| CNc1ccc(Cl)nn1 | 194 to 196 |
| O=C(O)CCn1nc(-c2cccs2)oc1=O | 146 to 148 |
| COc1cc(OC)cc(C(=O)N2CCC(C(=O)O)CC2)c1 | 164 to 166 |
| COc1cc(F)c(C(C)=O)cc1OC | 92 to 94 |
| CC(=O)Nc1cc(S(=O)(=O)Cl)ccc1O | 289 to 291 |
| COc1cccc(NC(=O)CC#N)c1 | 154 to 156 |
| CC(NC(=O)CCn1cncn1)C(=O)O (stereo not given) | 254 to 256 |
| CCOC(=O)c1csc(NC)n1 | 115 to 117 |
| Cc1cc(Br)ccc1CO | 74 to 76 |
| C=CCOc1ccc(C(F)(F)F)cc1C(=O)O | 58 to 60 |
| CC(C)Oc1ccc(C(O)CN2CCN(C)CC2)cc1 (stereo not given) | 103 to 105 |
| Nc1nnc(Cc2cccc(F)c2)o1 | 146 to 148 |
| O=S(=O)(Cl)c1ccc(OCCBr)cc1 | 59 to 61 |
| CC(=O)NC1(c2noc(CCl)n2)CCCC1 | 74 to 76 |

| Structure (SMILES) | melting point [°C] |
| --- | --- |
| Cc1ccc(-c2nc3ccc(F)cc3n2C(C)C)cc1N | 183 to 185 |
| CCC(C)(NC(=O)c1ccccc1)C(N)=S (stereo not given) | 162 to 164 |
| O=C(O)Cn1cccc(C(F)(F)F)c1=O | 199 to 201 |
| Cc1nccn1-c1cc(C(=O)O)c2ccccc2n1 | 229 to 231 |
| O=C(O)c1ccc(N2CCC(O)CC2)cc1 | 259 to 261 |
| Cn1c(=O)n(C)c2cc(C(=O)O)c(Br)cc21 | 289 to 291 |
| O=C(O)CNC(=O)c1cccc(Cl)c1 | 98 to 100 |
| O=C(CCl)N1CCCCCCC1 | 66 to 68 |
| O=C(O)COc1ccc(N2CCCC2=O)cc1 | 150 to 155 |
| COc1ccc(C(=O)O)cc1S(=O)(=O)N1CCCCCC1 | 190 to 194 |
| O=C(Nc1ccc(O)cc1)c1ccsc1 | 207 to 209 |
| COc1ccccc1CCNC(=O)CCl | 78 to 80 |
| NNS(=O)(=O)c1ccc(Cl)c([N+](=O)[O-])c1 | 126 to 128 |
| O=C1OC(CBr)CN1c1ccccc1 (stereo not given) | 102 to 104 |
| O=Cc1cc(O)c(O)c(Cl)c1 | 234 to 236 |
| N#CCc1nc2cc(C(F)(F)F)ccc2s1 | 95 to 97 |
| O=C(NC1CCNCC1)c1ccccc1 | 138 to 140 |
| COc1ccc(S(=O)(=O)NC2CC2)cc1N | 119 to 121 |
| O=C(O)CC1Sc2ccc(Cl)cc2NC1=O (stereo not given) | 240 to 242 |
| CS(=O)(=O)c1ccc(C(=O)Nc2c(Cl)cc(N)cc2Cl)cc1 | 238 to 240 |
